Laboratory results reported in patent publication US20230257372A1 (CHONG KUN DANG PHARMACEUTICAL CORP., priority 2020, published 2023).
pIC50: −log10 of the molar value. Like-named read-outs stand apart in the source and are kept apart here.

Assays:
[1] = target: T1, human recombinant HDAC6 (Homo sapiens, UniProt Q9UBN7); experiment: HDAC6 enzyme activity inhibition (HDAC Fluorimetric Drug Discovery Kit); type: biochemical
T1 construct: purchased Calbiochem Inc. 382180
T1 sequence (Q9UBN7 1-1215): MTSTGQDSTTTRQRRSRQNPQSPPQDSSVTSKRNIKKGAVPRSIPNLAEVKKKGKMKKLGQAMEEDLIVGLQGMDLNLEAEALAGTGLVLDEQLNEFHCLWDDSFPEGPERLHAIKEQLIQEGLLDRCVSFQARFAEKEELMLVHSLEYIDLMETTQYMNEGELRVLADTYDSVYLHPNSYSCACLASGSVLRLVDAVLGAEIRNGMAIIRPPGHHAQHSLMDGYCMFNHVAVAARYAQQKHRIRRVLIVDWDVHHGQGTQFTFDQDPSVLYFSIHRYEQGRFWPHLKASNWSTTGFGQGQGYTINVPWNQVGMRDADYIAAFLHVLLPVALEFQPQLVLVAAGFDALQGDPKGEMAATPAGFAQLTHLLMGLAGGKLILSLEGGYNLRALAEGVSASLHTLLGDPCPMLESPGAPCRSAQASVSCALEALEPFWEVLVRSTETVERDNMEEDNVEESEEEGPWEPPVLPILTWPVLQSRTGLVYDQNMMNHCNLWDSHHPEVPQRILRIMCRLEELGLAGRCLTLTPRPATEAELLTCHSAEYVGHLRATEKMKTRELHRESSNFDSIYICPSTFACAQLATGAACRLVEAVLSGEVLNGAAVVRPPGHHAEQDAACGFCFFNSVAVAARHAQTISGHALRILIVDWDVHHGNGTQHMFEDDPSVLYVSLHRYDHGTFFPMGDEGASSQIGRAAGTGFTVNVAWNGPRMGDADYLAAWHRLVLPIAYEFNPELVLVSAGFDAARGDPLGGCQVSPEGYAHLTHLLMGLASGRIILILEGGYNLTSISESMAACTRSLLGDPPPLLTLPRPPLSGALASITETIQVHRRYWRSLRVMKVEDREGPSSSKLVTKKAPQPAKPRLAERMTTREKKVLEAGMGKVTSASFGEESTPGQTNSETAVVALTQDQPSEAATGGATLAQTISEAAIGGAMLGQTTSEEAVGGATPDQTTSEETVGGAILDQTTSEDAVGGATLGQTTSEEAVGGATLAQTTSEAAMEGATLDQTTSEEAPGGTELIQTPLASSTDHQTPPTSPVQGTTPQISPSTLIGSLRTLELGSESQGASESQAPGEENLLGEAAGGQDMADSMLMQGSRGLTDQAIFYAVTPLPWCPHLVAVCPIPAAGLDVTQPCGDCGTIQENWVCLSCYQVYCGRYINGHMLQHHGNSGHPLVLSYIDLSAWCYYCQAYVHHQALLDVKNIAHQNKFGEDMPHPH
Procedure, shortened: (§1)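 Fluorimetric deacetylase read-out. 5-fold compound dilutions; […] enzyme, 10 μM substrate; 30° C, 60 min; developer 30 min.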

[2] = target: T2, human recombinant HDAC1 (Homo sapiens, UniProt Q13547); experiment: HDAC1 enzyme activity inhibition (HDAC Fluorimetric Drug Discovery Kit); type: biochemical; settings: read-out: HDAC1
T2 construct: purchased Enzo Life Science, Inc. BML-SE456
T2 sequence (Q13547 whole entry): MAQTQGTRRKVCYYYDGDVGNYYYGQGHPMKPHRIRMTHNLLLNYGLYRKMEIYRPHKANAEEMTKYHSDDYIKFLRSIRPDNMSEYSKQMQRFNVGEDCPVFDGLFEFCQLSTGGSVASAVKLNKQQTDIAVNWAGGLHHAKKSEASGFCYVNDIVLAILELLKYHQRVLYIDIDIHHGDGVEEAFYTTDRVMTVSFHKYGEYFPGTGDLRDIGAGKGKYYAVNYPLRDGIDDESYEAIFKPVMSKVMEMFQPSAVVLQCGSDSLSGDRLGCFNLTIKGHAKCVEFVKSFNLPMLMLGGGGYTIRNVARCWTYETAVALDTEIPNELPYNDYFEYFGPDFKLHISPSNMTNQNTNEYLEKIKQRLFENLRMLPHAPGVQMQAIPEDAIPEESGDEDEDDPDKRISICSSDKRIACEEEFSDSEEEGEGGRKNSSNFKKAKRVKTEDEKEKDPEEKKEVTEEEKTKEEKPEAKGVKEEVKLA
Procedure, shortened: as §1

[3] = human recombinant HDAC6, same protocol as HDAC1
[4] = human recombinant HDAC1, Fluor de Lys substrate, 30° C. 60 minutes
[5] = human recombinant HDAC6, IC50 calculated with GraphPad Prism
[6] = human recombinant HDAC1, IC50 calculated with GraphPad Prism

In the case of Fc1cc(-c2nnc(C(F)F)o2)ccc1Cn1cc(-c2ccc3c(c2)CN(C2CCC2)C3)nn1 [Compound 4518, 2-(4-((4-(2-cyclobutylisoindolin-5-yl)-1H-1,2,3-triazol-1-yl)methyl)-3-fluorophenyl)-5-(difluoromethyl)-1,3,4-oxadiazole], the “HDAC6 selectivity (fold)” value ([1]; HDAC6 over HDAC1) was 986 fold, the pIC50 [1, 3] was 7.29 and the pIC50 [2, 4] was under 4.30.
In the case of FC(F)c1nnc(-c2ccc(Cn3cc(-c4cccc(C5CN(C6COC6)C5)c4)nn3)cc2)o1 [Compound 4511, 2-(difluoromethyl)-5-(4-((4-(3-(1-(oxetan-3-yl)azetidin-3-yl)phenyl)-1H-1,2,3-triazol-1-yl)methyl)phenyl)-1,3,4-oxadiazole], the “HDAC6 selectivity (fold)” value ([1]; HDAC6 over HDAC1) was 325 fold, the pIC50 [1, 3] was 7.19 and the pIC50 [2, 4] was under 4.30.
For Fc1cc(-c2nnc(C(F)F)o2)ccc1Cn1cc(-c2cccc(N3CCN(C4CCC4)CC3)c2F)nn1 [Compound 4579, 2-(4-((4-(3-(4-cyclobutylpiperazin-1-yl)-2-fluorophenyl)-1H-1,2,3-triazol-1-yl)methyl)-3-fluorophenyl)-5-(difluoromethyl)-1,3,4-oxadiazole], the “HDAC6 selectivity (fold)” value ([1]; HDAC6 over HDAC1) was 1256 fold, the pIC50 [1, 3] was 7.40 and the pIC50 [2, 4] was under 4.30.
In the case of CC1CCN(Cc2cc(Cl)cc(-c3cn(Cc4ncc(-c5nnc(C(F)F)o5)cc4F)nn3)c2)CC1 [Compound 19093, 2-(6-((4-(3-chloro-5-((4-methylpiperidin-1-yl)methyl)phenyl)-1H-1,2,3-triazol-1-yl)methyl)-5-fluoropyridin-3-yl)-5-(difluoromethyl)-1,3,4-oxadiazole], the “HDAC6 selectivity (fold)” value ([1]; HDAC6 over HDAC1) was 211 fold, the pIC50 [1, 3] was 6.63 and the pIC50 [2, 4] was under 4.30.
With Fc1cc(-c2nnc(C(F)F)o2)ccc1Cn1cc(-c2ccc(N3CCNCC3)cc2F)nn1 [Compound 16797, 2-(difluoromethyl)-5-(3-fluoro-4-((4-(2-fluoro-4-(piperazin-1-yl)phenyl)-1H-1,2,3-triazol-1-yl)methyl)phenyl)-1,3,4-oxadiazole] the “HDAC6 selectivity (fold)” value ([1]; HDAC6 over HDAC1) was 738 fold, the pIC50 [1, 3] was 7.17 and the pIC50 [2, 4] was under 4.30.
For CN1CCc2cc(-c3cn(Cc4ccc(-c5nnc(C(F)F)o5)cc4F)nn3)ccc2C1 [Compound 4358, 2-(difluoromethyl)-5-(3-fluoro-4-((4-(2-methyl-1,2,3,4-tetrahydroisoquinolin-6-yl)-1H-1,2,3-triazol-1-yl)methyl)phenyl)-1,3,4-oxadiazole], the “HDAC6 selectivity (fold)” value ([1]; HDAC1 IC50 / HDAC6 IC50) was 1515 fold, the pIC50 [1, 5] was 7.48 and the pIC50 [2, 6] was under 4.30.
For CCC(F)(CC)CN1CCC(c2cn(Cc3ccc(-c4nnc(C(F)F)o4)cn3)nn2)CC1 [Compound 3896, 2-(difluoromethyl)-5-(6-((4-(1-(2-ethyl-2-fluorobutyl)piperidin-4-yl)-1H-1,2,3-triazol-1-yl)methyl)pyridin-3-yl)-1,3,4-oxadiazole], the “HDAC6 selectivity (fold)” value ([1]; HDAC1 IC50 / HDAC6 IC50) was 187 fold, the pIC50 [1, 5] was 6.57 and the pIC50 [2, 6] was under 4.30.
FC(F)c1nnc(-c2ccc(Cn3cc(-c4ccccc4-n4cncn4)nn3)nc2)o1 [Compound 4286, 2-(6-((4-(2-(1H-1,2,4-triazol-1-yl)phenyl)-1H-1,2,3-triazol-1-yl)methyl)pyridin-3-yl)-5-(difluoromethyl)-1,3,4-oxadiazole] was tested, and the “HDAC6 selectivity (fold)” value ([1]; HDAC1 IC50 / HDAC6 IC50) was 154 fold, the pIC50 [1, 5] was 6.49 and the pIC50 [2, 6] was under 4.30.
CN1CCC(Cc2cn(Cc3ccc(-c4nnc(C(F)F)o4)cn3)nn2)CC1 [Compound 4014, 2-(difluoromethyl)-5-(6-((4-((1-methylpiperidin-4-yl)methyl)-1H-1,2,3-triazol-1-yl)methyl)pyridin-3-yl)-1,3,4-oxadiazole] was tested, and the “HDAC6 selectivity (fold)” value ([1]; HDAC1 IC50 / HDAC6 IC50) was 246 fold, the pIC50 [1, 5] was 6.69 and the pIC50 [2, 6] was under 4.30.
For CN(C)Cc1ccc(-c2cn(Cc3ncc(-c4nnc(C(F)F)o4)cc3F)nn2)cc1Cl [Compound 19094, 1-(2-chloro-4-(1-((5-(5-(difluoromethyl)-1,3,4-oxadiazol-2-yl)-3-fluoropyridin-2-yl)methyl)-1H-1,2,3-triazol-4-yl)phenyl)-N,N-dimethylmethanamine], the “HDAC6 selectivity (fold)” value ([1]; HDAC6 over HDAC1) was 510 fold, the pIC50 [1, 3] was 7.01 and the pIC50 [2, 4] was under 4.30.
With CN1Cc2cccc(-c3cn(Cc4ccc(-c5nnc(C(F)F)o5)cc4)nn3)c2C1 [Compound 4529, 2-(difluoromethyl)-5-(4-((4-(2-methylisoindolin-4-yl)-1H-1,2,3-triazol-1-yl)methyl)phenyl)-1,3,4-oxadiazole] the “HDAC6 selectivity (fold)” value ([1]; HDAC6 over HDAC1) was 313 fold, the pIC50 [1, 3] was 6.80 and the pIC50 [2, 4] was under 4.30.
With CCN1CCCC(c2cn(Cc3ccc(-c4nnc(C(F)F)o4)cn3)nn2)C1 (stereo not drawn) [Compound 4002, 2-(difluoromethyl)-5-(6-((4-(1-ethylpiperidin-3-yl)-1H-1,2,3-triazol-1-yl)methyl)pyridin-3-yl)-1,3,4-oxadiazole] the “HDAC6 selectivity (fold)” value ([1]; HDAC1 IC50 / HDAC6 IC50) was 96 fold, the pIC50 [1, 5] was 6.28 and the pIC50 [2, 6] was under 4.30.
In the case of Fc1cc(-c2nnc(C(F)F)o2)cnc1Cn1cc(-c2cccs2)nn1 [Compound 17984, 2-(difluoromethyl)-5-(5-fluoro-6-((4-(thiophen-2-yl)-1H-1,2,3-triazol-1-yl)methyl)pyridin-3-yl)-1,3,4-oxadiazole], the “HDAC6 selectivity (fold)” value ([1]; HDAC6 over HDAC1) was 884 fold, the pIC50 [1, 3] was 7.25 and the pIC50 [2, 4] was under 4.30.
CN1CCN(c2ccc(F)c(-c3cn(Cc4ccc(-c5nnc(C(F)F)o5)cc4)nn3)c2)CC1 [Compound 4451, 2-(difluoromethyl)-5-(4-((4-(2-fluoro-5-(4-methylpiperazin-1-yl)phenyl)-1H-1,2,3-triazol-1-yl)methyl)phenyl)-1,3,4-oxadiazole] was tested, and the “HDAC6 selectivity (fold)” value ([1]; HDAC1 IC50 / HDAC6 IC50) was 1976 fold, the pIC50 [1, 5] was 7.77 and the pIC50 [2, 6] was under 4.30.
FC(F)c1nnc(-c2ccc(Cn3cc(-c4ccc5c(c4)CN(C4COC4)CC5)nn3)nc2)o1 [Compound 4213, 2-(difluoromethyl)-5-(6-((4-(2-(oxetan-3-yl)-1,2,3,4-tetrahydroisoquinolin-7-yl)-1H-1,2,3-triazol-1-yl)methyl)pyridin-3-yl)-1,3,4-oxadiazole] was tested, and the “HDAC6 selectivity (fold)” value ([1]; HDAC1 IC50 / HDAC6 IC50) was 1730 fold, the pIC50 [1, 5] was 7.54 and the pIC50 [2, 6] was under 4.30.
FC(F)c1nnc(-c2ccc(Cn3cc(-c4cccc5cc[nH]c45)nn3)nc2)o1 [Compound 4071, 2-(6-((4-(1H-indol-7-yl)-1H-1,2,3-triazol-1-yl)methyl)pyridin-3-yl)-5-(difluoromethyl)-1,3,4-oxadiazole] was tested, and the “HDAC6 selectivity (fold)” value ([1]; HDAC1 IC50 / HDAC6 IC50) was 347 fold, the pIC50 [1, 5] was 6.84 and the pIC50 [2, 6] was under 4.30.
In the case of FC(F)c1nnc(-c2ccc(Cn3cc(CCc4cn5ccccc5n4)nn3)nc2)o1 [Compound 3822, 2-(difluoromethyl)-5-(6-((4-(2-(imidazo[1,2-a]pyridin-2-yl)ethyl)-1H-1,2,3-triazol-1-yl)methyl)pyridin-3-yl)-1,3,4-oxadiazole], the “HDAC6 selectivity (fold)” value ([1]; HDAC1 IC50 / HDAC6 IC50) was 244 fold, the pIC50 [1, 5] was 6.69 and the pIC50 [2, 6] was under 4.30.
With CC(C)(F)CN1CCC(c2cn(Cc3ccc(-c4nnc(C(F)F)o4)cn3)nn2)CC1 [Compound 3895, 2-(difluoromethyl)-5-(6-((4-(1-(2-fluoro-2-methylpropyl)piperidin-4-yl)-1H-1,2,3-triazol-1-yl)methyl)pyridin-3-yl)-1,3,4-oxadiazole] the “HDAC6 selectivity (fold)” value ([1]; HDAC1 IC50 / HDAC6 IC50) was 171 fold, the pIC50 [1, 5] was 6.53 and the pIC50 [2, 6] was under 4.30.
With Fc1cc(-c2nnc(C(F)F)o2)ccc1Cn1cc(-c2ccc(CN3CCCC3)s2)nn1 [Compound 17913, 2-(difluoromethyl)-5-(3-fluoro-4-((4-(5-(pyrrolidin-1-ylmethyl)thiophen-2-yl)-1H-1,2,3-triazol-1-yl)methyl)phenyl)-1,3,4-oxadiazole] the “HDAC6 selectivity (fold)” value ([1]; HDAC6 over HDAC1) was 1547 fold, the pIC50 [1, 3] was 7.49 and the pIC50 [2, 4] was under 4.30.
For CN(C(=O)C(C)(C)C)c1cccc(-c2cn(Cc3ccc(-c4nnc(C(F)F)o4)cn3)nn2)c1 [Compound 3889, N-(3-(1-((5-(5-(difluoromethyl)-1,3,4-oxadiazol-2-yl)pyridin-2-yl)methyl)-1H-1,2,3-triazol-4-yl)phenyl)-N-methylpivalamide], the “HDAC6 selectivity (fold)” value ([1]; HDAC1 IC50 / HDAC6 IC50) was 1210 fold, the pIC50 [1, 5] was 7.38 and the pIC50 [2, 6] was under 4.30.
